Data published in patent US4105668A, “Process for 6-amino-2,2-dimethyl-3-(5-tetrazolyl)penam” (Pfizer Inc., priority 1977, dated 1978).
≈ marks a conversion by molar mass, not a printed value.

What was measured:
Staphylococcus aureus [1] = test: In vivo antibacterial activity, protection of mice against systemic infection (lethal intraperitoneal inoculum); conditions: infected mice, multiple dosing
[2] = tested on: Staphylococcus aureus or Escherichia coli; test: In vivo antibacterial activity in infected mice (statement in words); conditions: SC and PO
Experimental: (§1) The broth is inoculated with the bacterial culture, and with the test compound, and then it is incubated overnight. On the next day, the test is read visually. The minimum inhibitory concentration (MIC) is the lowest concentration of compound which prevents turbidity, i.e., which prevents growth of the microorganism. In vitro activities against certain pathogenic bacteria area shown in Table I. This in vitro activity makes the compound of value for topical applications, for example, in the form of creams and ointments, and for the sterilization of sickroom and hospital surfaces, equipment and the like. […] This in vivo activity makes this compound suitable for the control of bacterial infections caused by susceptible organisms, in mammals, including man, by both the oral and parenteral mode of administration.

Escherichia coli [3] = test: In vivo antibacterial activity, protection of mice against systemic infection (lethal intraperitoneal inoculum); conditions: infected mice, multiple dosing
Staphylococcus aureus [4] = test: In vitro antibacterial activity (MIC), two-fold serial dilution in Brain-Heart Infusion broth; type: cell-based; conditions: S. aureus, overnight
Experimental: as §1

Escherichia coli [5] = test: as above; type: cell-based; conditions: E. coli, overnight
Experimental: as §1

Streptococcus pyogenes = test: as above; type: cell-based; conditions: S. pyogenes, overnight
Experimental: as §1

[6] = tested on: gram-positive and gram-negative bacteria; test: In vitro activity against gram-positive and gram-negative bacteria; type: cell-based
Experimental: as §1

Isoelectric point = type: physicochemical; conditions: in water

isoelectric point (Isoelectric point) [pH]	SMILES	Percentage protection S. Aureus (Staphylococcus aureus [1]; 6 mg./kg. SC) [%]	Percentage protection S. Aureus (Staphylococcus aureus [1]; 12 mg./kg. SC) [%]	Percentage protection S. Aureus (Staphylococcus aureus [1]; 25 mg./kg. SC) [%]	Percentage protection S. Aureus (Staphylococcus aureus [1]; 50 mg./kg. SC) [%]	antibacterial activity in vivo [2]	Percentage protection E. coli (Escherichia coli [3]; 25 mg./kg. SC) [%]	Percentage protection E. coli (Escherichia coli [3]; 50 mg./kg. SC) [%]	Percentage protection E. coli (Escherichia coli [3]; 200 mg./kg. PO) [%]	MIC (Staphylococcus aureus [4]) [ng/mL]	MIC (Escherichia coli [5]) [ng/mL]	MIC (Streptococcus pyogenes) [ng/mL]	activity against a wide variety of gram-positive and gram-negative bacteria [6]
	CC1(C)S[C@@H]2[C@H](NC(=O)[C@H](N)c3ccc(O)cc3)C(=O)N2[C@H]1c1nn[nH]n1 [6-(D-2-Amino-2-[4-hydroxyphenyl]acetamido)-2,2-dimethyl-3-(5-tetrazolyl)penam]	50	50	70	80	active as an antibacterial agent in vivo	80	100	100	6 (≈ 0.0154 µM)	780 (≈ 2 µM)	1 (≈ 0.00257 µM)	shows activity against a wide variety of gram-positive and gram-negative bacteria
~4.1	CC1(C)S[C@@H]2[C@H](N)C(=O)N2[C@H]1c1nn[nH]n1 [6-amino-2,2-dimethyl-3-(5-tetrazolyl)penam]												
